Test results as given in ChEMBL document CHEMBL5584353, “Design, Synthesis, and Biological Evaluation of Potent EZH2/LSD1 Dual Inhibitors for Prostate Cancer” (J Med Chem, 2024).
Calls of active or inactive are those of the source. No cut-off for these calls is given here.

Assays:
[1] = Tmax in BALB/c mouse at 50 mg/kg,ip measured upto 24 hrs by HPLC-MS/MS analysis; type: ADME, organism-based; conditions: in vivo
[2] = tested on: A549; experiment: Antiproliferative activity against human A549 cells assessed as inhibition of cell growth incubated for 6 to 7 days by MTS assay; type: functional, cell-based; conditions: time 6-7 day
[3] = tested on: BT-549; experiment: Antiproliferative activity against human BT-549 cells assessed as inhibition of cell growth incubated for 6 to 7 days by MTS assay; type: functional, cell-based; conditions: time 6-7 day
[4] = Toxicity in BALB/c mouse xenografted with human 22Rv1 cells assessed as lung morphological change at 80 mg/kg,ip administrated daily for 31 days; type: organism-based, CWR22R; conditions: in vivo, 744 h, time 31 day
[5] = tested on: CWR22R; experiment: Induction of apoptosis in human 22Rv1 cells at 1 uM incubated for 5 days by Annexin V-FITC/PI staining based flow cytometric analysis (reference value: 8.97 %); type: functional; conditions: time 5 day
[6] = tested on: CWR22R; experiment: Induction of apoptosis in human 22Rv1 cells assessed as upregulation of cleaved caspase-3 expression incubated for 48 hr by Western blotting analysis; type: functional, cell-based
[7] = tested on: PC-9; experiment: Antiproliferative activity against human PC-9 cells assessed as inhibition of cell growth incubated for 6 to 7 days by MTS assay; type: functional, cell-based; conditions: time 6-7 day
[8] = Metabolic stability in Sprague-Dawley rat hepatocyte assessed as compound remaining at 20 uM incubated for 120 mins by HPLC-MS/MS analysis; type: ADME, cell-based; conditions: hepatocytes, read-out: Stability
[9] = tested on: NCI-H292; experiment: Antiproliferative activity against human NCI-H292 cells assessed as inhibition of cell growth incubated for 6 to 7 days by MTS assay; type: functional, cell-based; conditions: time 6-7 day
[10] = tested on: CWR22R; experiment: Synergistic antitumor activity against human 22Rv1 cells xenografted in BALB/c mouse assessed as reduction in tumor growth at 80 mg/kg,ip administrated daily for 31 days in presence of enzalutamide relative to control; type: functional, organism-based; conditions: time 31.0 day
[11] = AUC (0 to infinity) in BALB/c mouse at 50 mg/kg,po measured upto 24 hrs by HPLC-MS/MS analysis; type: ADME, organism-based; conditions: in vivo
[12] = Metabolic stability in Sprague-Dawley rat hepatocyte assessed as half life at 20 uM incubated for 60 mins by HPLC-MS/MS analysis; type: ADME, cell-based; conditions: hepatocytes
[13] = Half life in BALB/c mouse at 50 mg/kg,po measured upto 24 hrs by HPLC-MS/MS analysis; type: ADME, organism-based; conditions: in vivo
[14] = tested on: LNCaP; experiment: Growth inhibition of human LNCaP cells incubated for 6 to 7 days by MTS assay; type: functional; conditions: time 6-7 day
[15] = Clearance in BALB/c mouse at 50 mg/kg,ip measured upto 24 hrs by HPLC-MS/MS analysis; type: ADME, organism-based; conditions: in vivo
[16] = tested on: CWR22R; experiment: Induction of apoptosis in human 22Rv1 cells assessed as upregulation of p21 expression incubated for 48 hr by Western blotting analysis; type: functional, cell-based
[17] = Half life in BALB/c mouse at 50 mg/kg,iv measured upto 24 hrs by HPLC-MS/MS analysis; type: ADME, organism-based; conditions: in vivo
[18] = molecular target: T1, Amine oxidase [flavin-containing] A (Homo sapiens, UniProt P21397); experiment: Inhibition of MAO-A (unknown origin)
T1 sequence (P21397 whole entry): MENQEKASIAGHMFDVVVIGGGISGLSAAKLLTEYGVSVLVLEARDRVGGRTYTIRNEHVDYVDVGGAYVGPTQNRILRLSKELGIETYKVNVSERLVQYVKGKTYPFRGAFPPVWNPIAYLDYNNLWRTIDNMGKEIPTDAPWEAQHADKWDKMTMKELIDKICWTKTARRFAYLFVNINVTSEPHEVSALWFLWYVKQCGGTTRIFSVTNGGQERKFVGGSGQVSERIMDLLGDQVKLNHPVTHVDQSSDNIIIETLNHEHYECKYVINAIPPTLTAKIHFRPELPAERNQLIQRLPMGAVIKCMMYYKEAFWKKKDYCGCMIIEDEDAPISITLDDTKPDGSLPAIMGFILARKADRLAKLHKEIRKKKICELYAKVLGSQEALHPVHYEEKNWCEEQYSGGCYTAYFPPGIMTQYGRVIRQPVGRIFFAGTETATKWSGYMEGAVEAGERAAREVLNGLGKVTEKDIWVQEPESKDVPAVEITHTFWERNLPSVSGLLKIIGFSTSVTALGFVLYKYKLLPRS

[19] = AUC (0 to infinity) in BALB/c mouse at 50 mg/kg,iv measured upto 24 hrs by HPLC-MS/MS analysis; type: ADME, organism-based; conditions: in vivo
[20] = tested on: PC-3; experiment: Antiproliferative activity against human PC-3 cells assessed as inhibition of cell growth incubated for 6 to 7 days by MTS assay; type: functional, cell-based; conditions: time 6-7 day
[21] = tested on: LNCaP; experiment: Antiproliferative activity against human LNCaP cells assessed as inhibition of cell growth incubated for 6 to 7 days by MTS assay; type: functional, cell-based; conditions: time 6-7 day
[22] = Metabolic stability in Sprague-Dawley rat hepatocyte assessed as intrinsic clearance at 20 uM incubated for 60 mins by HPLC-MS/MS analysis; type: ADME, cell-based; conditions: hepatocytes, 1 h
[23] = tested on: CWR22R; experiment: Growth inhibition of human 22Rv1 cells incubated for 6 to 7 days by MTS assay; type: functional; conditions: time 6-7 day
[24] = tested on: LNCaP; experiment: Induction of apoptosis in human LNCaP cells at 1 to 10 uM incubated for 5 days by Annexin V-FITC/PI staining based flow cytometric analysis; type: functional, cell-based; conditions: dose 1-10 µM, time 5.0 day
[25] = Toxicity in BALB/c mouse xenografted with human 22Rv1 cells assessed as kidney morphological change at 80 mg/kg,ip administrated daily for 31 days; type: organism-based, CWR22R; conditions: in vivo, 744 h, time 31 day
[26] = tested on: CWR22R; experiment: Antiproliferative activity against human 22Rv1 cells assessed as inhibition of cell growth incubated for 6 to 7 days by MTS assay; type: functional, cell-based; conditions: time 6-7 day
[27] = tested on: CWR22R; experiment: Antitumor activity against human 22Rv1 cells xenografted in BALB/c mouse assessed as reduction in Ki67 expression at 80 mg/kg,ip administrated daily for 31 days by immunofluorescence analysis; type: functional, organism-based; conditions: time 31.0 day
[28] = molecular target: Lysine-specific histone demethylase 1A (Homo sapiens, UniProt O60341); experiment: Inhibition of LSD1 in human LNCaP cells assessed as downregulation of AR-V7 expression at 1 to 20 uM incubated for 48 hrs by Western blotting analysis; type: cell-based; conditions: dose 1-20 µM
[29] = tested on: CWR22R; experiment: Synergistic antiproliferative activity against human 22Rv1 cells assessed as inhibition of cell growth at 6.25 to 100 uM incubated for 6 to 7 days in presence of enzalutamide by MTS assay; type: functional, cell-based; conditions: dose 6.25-100 µM, time 6-7 day
[30] = Metabolic stability in Sprague-Dawley rat hepatocyte assessed as compound remaining at 20 uM by HPLC-MS/MS analysis; type: ADME, cell-based; conditions: hepatocytes, read-out: Stability
[31] = Cmax in BALB/c mouse at 50 mg/kg,po measured upto 24 hrs by HPLC-MS/MS analysis; type: ADME, organism-based; conditions: in vivo
[32] = Clearance in BALB/c mouse at 50 mg/kg,iv measured upto 24 hrs by HPLC-MS/MS analysis; type: ADME, organism-based; conditions: in vivo
[33] = Half life in BALB/c mouse at 50 mg/kg,ip measured upto 24 hrs by HPLC-MS/MS analysis; type: ADME, organism-based; conditions: in vivo
[34] = tested on: CWR22R; conditions: Homo sapiens, dose 80.0 mg/kg, route ip, time 31.0 day

CCN(c1cc(-c2ccc([C@@H]3C[C@H]3N(CC3CCOCC3)C(=O)OC(C)(C)C)cc2)cc(C(=O)NCc2c(C)cc(C)[nH]c2=O)c1C)C1CCOCC1 (racemic)
Tmax [1]: 2 h | Activity [2]: Active | Activity [3]: Active | Activity [4]: Non-Toxic | Activity [5]: 17.71% | Activity [6]: Dose-Dependent Effect | Activity [7]: Active | remaining at 2 h, 20 µM [8]: 75.8% | Activity [9]: Active | Activity [10]: Active | AUC(0-inf) [11]: 41400 ng·h/mL | half-life at 20 µM [12]: 5.5 h | half-life [13]: 3.5 h | GI50 [14]: 1630 nM | CL/F [15]: 8.33 mL/min/kg | Activity [16]: Dose-Dependent Effect | half-life [17]: 2.5 h | IC50 [18]: 1540 nM | AUC(0-inf) [19]: 126000 ng·h/mL | Activity [20]: Active | Activity [21]: Active | CLH [22]: 4 µL/min/mg | GI50 [23]: 3960 nM | Activity [24]: Active | Activity [25]: Non-Toxic | Activity [26]: Active | Activity [27]: Active | inhibition [28]: Active | Activity [29]: Active | remaining at 20 µM [30]: 100% | Cmax [31]: 7410 ng/mL | clearance [32]: 6.67 mL/min/kg | half-life [33]: 3.5 h | inhibition [34]: Active
